{"source": "patent US20200397720A1", "about": "“METHOD AND FORMULATION FOR TREATMENT OF WOUNDS BY NEW TISSUE REGENERATION WITH REDUCED TRAUMA AND SCAR TISSUE FORMATION” (priority 2019, published 2020)", "origin": "cited, not measured here", "test_system": "inflammatory cytokines, including IL-6 and TNF-α", "conditions": "high fat diet-induced atherosclerosis in rabbits"}
{"compound": "CC1=C(/C=C/C(C)=C/C=C/C(C)=C/C(=O)O)C(C)(C)CCC1", "note": "[ATRA, all-trans retinoic acid]", "values": [{"measurement": "effect on inflammatory cytokines, including IL-6 and TNF-α", "value": "lowering inflammatory cytokines"}]}
